US11613552B2, “Pharmaceutical agents, compositions, and methods relating thereto” (Alltech, Inc., priority 2017, dated 2023)

Columns and labels:
G6PC [1] = assay: QRT-PCR of G6PC expression in HepG2 cells; type: cell-based, human; settings: 100 nM insulin or 600 ppb Compound #43, serum-free, 40 hr (FIG. 10B)
Experimental: For RNA analysis of basal G6pc expression (without the presence of diabetic stimuli: 8-CPT/Dex), amplified AML-12 and HepG2 cells were cultured on 24-well plates (0.5-2×10^5 cells/well) overnight in 10% FBS ITS- and Dex-free DMEM/F12 media and 10% FBS EMEM media, respectively. These cells were rinsed twice with PBS to remove residual sera. Then, the PBS-washed HepG2 cells were treated without or with insulin or Compound #43 in serum-free EMEM media for 40 hr. In some experiments, the PBS-washed AML-12 cells were incubated without or with Compound #43 or other selenium compounds in serum-free DMEM/F12 media for 24 hours. In other experiments, amplified AML-12 cells were pretreated without or with Compound #43 (150 or 300 ppb) in 10% FBS but ITS/Dex-free DMEM/F12 media for 24 hr. After 24 hr treatment, AML-12 cells were washed twice with PBS (to remove any residual serum in the culture) and then treated with insulin, Compound #43 or both, in the serum-free DMEM/Dex media for 6 hr.
Total RNA from saline- or selenium compound-treated Lepr^db/db mice was isolated using a Qiagen RNAeasy RNA isolation kit according to the Manufacturer's protocol. Total RNA from cultured cells was isolated using Trizol (Invitrogen) according to the manufacturer's protocol, and then incubated with DNase I to remove any potential contaminating genomic DNA. […]

G6pc [2] = assay: QRT-PCR of 8-CPT/Dex-induced G6pc expression in AML-12 cells; type: cell-based, mouse; settings: for G6pc mRNA level normalized by non-8-CPT/Dex-treated group: with 8-CPT/Dex (8-CPT/Dex alone 41.5)
Experimental: For RNA analysis of the diabetic stimuli-induced G6pc expression, the AML-12 cells were pretreated without or with Compound #43 (150 or 300 ppb) in 10% FBS but ITS/Dex-free DMEM/F12 media for 24 hr. Then these cells were washed twice with PBS remove any residual sera, and incubated with Compound #43 (150 or 300 ppb) in the presence or absence of insulin (10 or 100 nM), or 0.1 mM 8-CPT (Sigma) and 0.5 μM Dex in serum-free plain DMEM/F12 media for another 6 hours.
Total RNA from saline- or selenium compound-treated Lepr^db/db mice was isolated using a Qiagen RNAeasy RNA isolation kit according to the Manufacturer's protocol. Total RNA from cultured cells was isolated using Trizol (Invitrogen) according to the manufacturer's protocol, and then incubated with DNase I to remove any potential contaminating genomic DNA. RNA samples were subjected to real-time PCR (QRT-PCR) analysis using Applied-Bioscience's RT kit and predesigned Taqman probes (Invitrogen), as described previously (Lan et al EMBO J 2003). Data were normalized by Actin B (Actb) mRNA levels in each sample, and are presented as mean±SEM of 3-5 samples.

Lepr^db/db mice [3] = assay: Acute treatment: blood glucose in Lepr^db/db mice; type: in vivo, mouse
Experimental: After overnight fasting, 8-10-week-old Lepr^db/db mice were intraperitoneally injected with physiological saline ([…]) containing 0.2% DMSO, or Compound #43 (0.0054, 0.054, 0.54, or 5.4 mg Compound #43 (the compound stock was diluted in sterile physiological saline) per kilogram of body weight. Following the injection of saline or compound, mice were returned to their cages with free access to water but not chow for 1, 2, 3, 5 and 8 hr. At each time point after injection, a small drop of blood was collected from the tail of each mouse for glucose assay.
Additional 6-week old Lepr^db/db mice under non-fasting conditions were intraperitoneally injected with physiological saline ([…]) containing 0.2% DMSO, or a single dose of Compound #43 (5.4 mg compound/kg body weight). After injection, animals were returned back to their cages with free access to water and chow. After 24 hr, a small drop of blood from the mouse tail was collected for glucose assay.
(§1) After treatment with physiological saline or compounds or after the injection of a bolus of glucose, a small drop of blood from each mouse was collected by snipping the mouse tail tip. Blood glucose levels were determined using a Glucometer with a maximum capability for glucose measurement of 600 mg/dL.

Lepr^db/db mice [4] = assay: Chronic treatment: fasting blood glucose and HbA1c in Lepr^db/db mice; type: in vivo, mouse
Experimental: Male Lepr^db/db mice at 38 days of age were intraperitoneally (ip) injected daily with physiological saline ([…]) containing 0.2% DMSO, Compound #C, Compound #50, Compound #68, and/or Compound #43 (25 μg selenium or sulfur equivalents of each compound per kilogram body weight, diluted in sterile physiological saline) for periods ranging from 43-90 days. Body weights of the above treated mice were recorded daily using a balance and any visible abnormal animal gross morphology and walking behavior were monitored daily. After the treatments, animals were fasted overnight and then subjected to blood glucose or HbA1c assays, glucose tolerance tests or tissue collections.
For comparative studies of any potential anti-diabetic effects of Compounds #43, #69 and #70, male Lepr^db/db mice at 41 days of age were intraperitoneally (ip) injected daily with physiological saline ([…]) containing 0.2% DMSO, Compound #43, Compound #69, or Compound #70 (25 μg selenium of each compound per kilogram body weight, diluted in sterile physiological saline). After the treatments for 43 days, animals were fasted overnight and then subjected to blood glucose and glucose tolerance tests. After daily treatments of these compounds for 90 days, sera from these animals were collected and then subjected to blood HbA1c assays.
as §1
After saline or compound treatments, a small drop of blood from the mouse tail was collected in an EDTA-coated eppendorf tube (to prevent blood coagulation) (Fisher Scientific), and then subjected to a HbA1c assay using the Crystal Chem's or Kamiya's mouse glycated hemoglobin A1c ELISA kit, according to the manufacturer's protocol. Also after the final treatments, mouse serum was collected and subjected to HbA1c assay using the Kamiya Biomeidcal Company's mouse HbA1c kit, according to the manufacturer's protocol.

[5] = 25 μg selenium/kg ip daily for 43 days from 41 days of age (FIG. 5)
[6] = 25 μg selenium/kg ip daily, 3 months (FIG. 4)

Compound | effect on G6PC expression (G6PC [1]) | reduction of 8-CPT/Dex-induced G6pc expression vs 8-CPT/Dex group (G6pc [2]; 150 and 300 ppb alone) [%] | effect on 8-CPT/Dex-induced G6pc expression (G6pc [2]; 150 or 300 ppb co-treated with 100 nM insulin) | G6pc mRNA level normalized by non-8-CPT/Dex-treated group (G6pc [2]; 150 ppb, Column #5 FIG. 11) | G6pc mRNA level normalized by non-8-CPT/Dex-treated group (G6pc [2]; 300 ppb, Column #8 FIG. 11) | decrease of blood glucose levels (Lepr^db/db mice [3]; 5.4 mg/kg single ip, 24 hr, 6-week-old mice, ad-libitum feeding (FIG. 7)) | duration of effectiveness in lowering glucose output (Lepr^db/db mice [3]; 5.4 mg/kg single ip, feeding conditions) | effect on blood glucose levels vs saline (Lepr^db/db mice [3]; single ip 0.0054, 0.054, 0.54, 5.4 mg/kg, fasting, 1-8 hr (FIG. 6)) | duration of activity (Lepr^db/db mice [3]; single ip injection, fasting) | onset of action post-treatment (Lepr^db/db mice [3]; single ip injection, fasting) [h] | time of peak activity in reducing blood glucose levels (Lepr^db/db mice [3]; single ip injection, fasting conditions) [h] | effect on fasting blood glucose levels (Lepr^db/db mice [4]; 25 μg selenium or sulfur/kg ip daily, 3 months (FIG. 4)) | decrease in fasting blood glucose levels vs saline (Lepr^db/db mice [4]; [5]) [%] | fasting blood glucose levels (Lepr^db/db mice [4]; [5]) [mg/dL] | effect on HbA1c levels (Lepr^db/db mice [4]; 25 μg selenium/kg ip daily for 90 days from 41 days of age (FIG. 5)) | reduction in serum HbA1c levels compared to saline (Lepr^db/db mice [4]; 25 μg selenium/kg ip daily from day 38, measured at 90 days of age (FIG. 3)) [%] | reduction of fasting blood glucose levels compared to controls (Lepr^db/db mice [4]; 25 μg selenium/kg ip daily from day 38, measured at day 81 (FIG. 3)) | decrease of blood HbA1c levels compared to saline (Lepr^db/db mice [4]; [6]) | fasting glucose levels (Lepr^db/db mice [4]; [6]) | effect on 8-CPT/Dex-induced G6pc expression (G6pc [2]; 10 nM and 100 nM insulin, 6 hr)
C[Se]C[C@H]1O[C@@H](n2cnc3c(N)ncnc32)C(OC(C)=O)C1OC(C)=O (stereo partly drawn) [Compound #43, Adenosine, 5′-Se-methyl-5′-selino-, 2′,3′-diacetate] | significantly attenuated | ~68 | almost completely abolished 8-CPT/Dex-induced G6pc expression | 13 | 13.5 | about 20% | at least 24 hr | significant decrease of blood glucose levels | at least 8 hours | ≤ 1 | 2 to 5 | statistically significant decrease in fasting blood glucose levels | ~35 | 188 | significant decrease of HbA1c levels | ~20 | about 45% | about 30% | about 135 mg/dL | –
insulin: insulin purchased from Sigma, positive control | significant decrease of G6PC expression | – | – | – | – | – | – | – | – | – | – | – | – | – | – | – | – | – | – | significantly decreased 8-CPT/Dex-induced G6pc expression
